Assay [1] deals with T1, Pin1 (Homo sapiens, UniProt Q13526).
T1 construct: We performed FP-HTS in a 384-well plate format with full length Pin1
In words: Pin1 inhibition by retinoids in a cell culture model. It is filed as cell-based. The procedure: As trans-RA is selected as the current lead compound, it is important to identify the essential moiety of RAs on Pin1 interaction for further lead optimization. Many commercially available retinoids were tested for Pin1 inhibition. […] Other RA compounds that are metabolized to contain an end carboxylic group are also likely to be useful in treating proliferative disorders (FIG. 10D). In addition, compounds that modulate the retinoic acid receptor (FIGS. 10D and 11A and compounds listed in Table 1) are also likely to be useful in treating proliferative disorders.

Assay [2] deals with SKBR3. The experiment in a line: cell viability. It is filed as cell-based, human. An excerpt:
(§1) This discrepancy between cell lines was correlated with the RAs' ability to suppress Pin1 expression. Pin1 level was decreased by treatment of RAs in drugs-responsive SKBR3 and T47D, but not in drugs-irresponsive normal cells, MCF10A (FIG. 7B), in which Pin1 target protein, cyclin D1, was served as biomarkers of in vivo Pin1 activity. […] To further confirm this premise, wild-type mouse embryonic fibroblast (WT MEF) and Pin1 knockout MEF (Pin1 KO MEF) were used to test trans-RA-mediated cell viability (FIGS. 9A-C). […] In addition, Pin1 KO MEF stably expressing WT Pin1, but not W34/K63A Pin1 mutant, enabled cells to re-sensitize trans-RA.

Assay [3] deals with breast cancer cells. In words: cis-RA-mediated cell death with RARα knockdown. Type of assay: cell-based.
Assay [4] concerns T47D. In words: cell viability. Type of assay: cell-based.
Description: as §1

Assay [5] concerns MCF10A. The experiment in a line: cell viability. Type of assay: cell-based. The note with it: normal cell line MCF10A.
Description: as §1

Assay [6] concerns the target Pin1 and DAPK1 (Homo sapiens, UniProt Q13526). In words: association between Pin1 and DAPK1 (competition). Type of assay: binding. The note with it: dose-dependent manner, trans being more potent.
The target of assay [7] is T1, Pin1. In words: single-step fluorescence polarization-based displacement assay (FP-HTS). Type of assay: binding. The procedure:
We used the FP-HTS with a 5 nM probe and 200 nM Pin1 to conduct a pilot screen on a selected set of chemical libraries.

Assay [8] deals with T1, Pin1. The experiment in a line: PPIase assay. The note with it: dose-dependent manner. Type of assay: biochemical. The procedure:
(§2) We used the FP-HTS with a 5 nM probe and 200 nM Pin1 to conduct a pilot screen on a selected set of chemical libraries. We obtained the resulting potential positive hits and grouped them into 3 classes according to the Z-score, which is folds of standard deviation below the mean. […] 1) cis-RA is not listed in promiscuous inhibitor databases 2) all-trans retinoic acid (trans-RA), the pairing compound of cis-RA, is currently used as oral prescription for patients with acute promyelocytic leukemia […]; 3) both cis-RA and trans-RAs are used as a medication in the phase II/III clinical trial for breast cancer, and more because of its ability to kill rapidly dividing cells; and 4) although it has been reported that RAs target on retinoic acid receptor (RAR), the exact mechanism of the anticancer action is unknown. As a result, we examined whether the anti-cancer effect of RAs depends on RAR in the breast cancer cells. […] In the PPIase assay, Pin1 activity was blocked by either cis- or trans-RA in a dose-dependent manner (FIG. 4).

Assay [9] deals with WT MEF and Pin1 KO MEF. The experiment in a line: trans-RA-mediated cell viability in MEF. It is filed as cell-based, mouse.
Description: as §1

For assay [10], the system named is Pin1 K63A, S67E, R68/69A, H59A or S71E. The experiment in a line: trans-RA binding to Pin1 point mutants. Conditions: point mutations K63A. As for the experimental part: as §2

Where a SMILES comes first, the peptide text is derived from it. [ ]: non-standard residue; d: D form. pT = C[C@@H](OP(=O)(O)O)[C@H](N)C(=O)O; 2Nal = N[C@@H](Cc1ccc2ccccc2c1)C(=O)O; Bta = N[C@@H](Cc1csc2ccccc12)C(=O)O; Pip = O=C(O)[C@@H]1CCCCN1

T1 sequence (Q13526 whole entry): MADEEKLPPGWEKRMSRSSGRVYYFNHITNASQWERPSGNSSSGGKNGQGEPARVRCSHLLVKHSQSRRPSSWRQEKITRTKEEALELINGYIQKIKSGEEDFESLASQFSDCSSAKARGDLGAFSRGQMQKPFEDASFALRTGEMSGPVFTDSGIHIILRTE
Pin1 and DAPK1, sequence (Q13526 whole entry): as above

Take `CCCCCCCCc1ccc(-c2ccc(C(=O)O)cc2)cc1` [AC-55649]: the Pin1 inhibition result in assay [1] is recorded as “maintained Pin1 inhibition”.
As for `COc1cc(C)c(/C=C/C(C)=C/C=C/C(C)=C/C(=O)O)c(C)c1C` [acitretin], in assay [1], the Pin1 inhibition entry is listed as “maintained Pin1 inhibition”.
For the compound `CC1=C(/C=C/C(C)=C/C=C/C(C)=C\C(=O)O)C(C)(C)CCC1` [cis-RA, (2Z,4E,6E,8E)-3,7-dimethyl-9-(2,6,6-trimethylcyclohexen-1-yl)nona-2,4,6,8-tetraenoic acid], the “IC50 (cell viability)” value in assay [2] and in assay [4] was “nano-molar range” each time. In assay [3], the “rescue of cis-RA-mediated cell death” value is “only partially rescue”. For the same compound, the cell viability entry in assay [5] was “remained unaffected”. Further, in assay [6], the “association between Pin1 and DAPK1” value is on record as “blocked”. Besides, the “pilot screen hit class according to Z-score” value in assay [7] (5 nM probe and 200 nM Pin1) is on record as “top strong chemical”. For the same compound, in assay [7] (long-term incubation with Pin1), the “Pin1 inhibition in the FP assay” value is given as “eventually catch up with trans-RA”. Also, the Pin1 activity entry in assay [8] is reported as “blocked”. The Pin1 inhibition entry in [1] is “maintained Pin1 inhibition”.
Regarding `C[C@@H](OP(=O)(O)O)[C@H](NC(=O)[C@@H](N)Cc1csc2ccccc12)C(=O)N1CCCC[C@H]1C(=O)N[C@@H](Cc1ccc2ccccc2c1)C(=O)O` [pTide, Bth-L-phos.Thr-Pip-Nal] (H-[Bta][pT][Pip][2Nal]-OH; N-terminus and C-terminus assumed), the “displacement of HF488 probe from Pin1” value in [7] is listed as “displaced”.
Regarding `CC1=C(/C=C/C(C)=C/C=C/C(C)=C/C(=O)O)C(C)(C)CCC1` [trans-RA, (2E,4E,6E,8E)-3,7-dimethyl-9-(2,6,6-trimethylcyclohexen-1-yl)nona-2,4,6,8-tetraenoic acid], the “IC50 (cell viability)” value in [2] and in [4] was “nano-molar range” in each case. In addition, the cell viability entry in [5] is recorded as “remained unaffected”; in [9] (Pin1 KO MEF compared with WT MEF), “more resistant”; in [9] (Pin1 KO MEF stably expressing WT Pin1) it was “re-sensitize”. For the same compound, in assay [6], the “association between Pin1 and DAPK1” value is reported as “blocked”. For the same compound, in assay [7] (compared with cis-RA), the “Pin1 inhibition in the FP assay” value was “more prominent Pin1 inhibition than cis-RA”. Further, the Pin1 activity entry in assay [8] is “blocked”. Moreover, the “trans-RA binding to Pin1” value in assay [10] is reported as “completely or significantly abolished”. The Pin1 inhibition entry in assay [1] was “maintained Pin1 inhibition”.

For the origin of these results see patent publication US10265288B2, “Methods and compositions for the treatment of proliferative disorders” (Beth Israel Deaconess Medical Center, Inc., priority 2011, dated 2019).
